Test results from patent publication US9650389B2, “8-oxoprotoberberine derivative or pharmaceutically acceptable salt thereof, preparation method therefor and pharmaceutical composition for preventing or treating diseases associated with activity of NFAT5, containing same as active ingredient” (Korea Research Institute of Chemical Technology, priority 2013, dated 2017).

What was measured:
NFATc = assay: NFAT (NFATc) transcriptional activity, THP1-XBlue-MD2-CD14 cells, SEAP; format: cell-based; conditions: LPS 1 μg/ml, 24 hours, FIG. 2B
Experimental: To evaluate the transcriptional activity of NFAT, THP1-XBlue-MD2-CD14 cells were cultured in 10% FBS-RPMI (supplemented with 200 μg/ml of Zeocin and 250 μg/ml of G418). First, the cells were distributed in a 96-well plate at the density of 2×10^4 cells/well, followed by culture. 1 μg/ml of LPS and the compound of the invention were added thereto, followed by culture for 24 hours. 20 μl of the supernatant was added with 180 μl of secreted embryonic alkaline phosphatase (SEAP) detection medium, followed by culture for 2 hours. Then, OD655 was measured.

[1] = Cytotoxicity test (WST-8), NIH 3T3; format: cell-based; conditions: mouse, NIH 3T3 embryonic fibroblast cells; NIN3T3, 24 hours
Experimental: (§1) To investigate the cytotoxicity of the derivative of the present invention, 5 kinds of cell lines (VERO: African green monkey kidney cell line, HFL-1: human embryonic lung cell line, L929: NCTC clone 929, mouse fibroblast cell line, NIH 3T3: mouse embryonic fibroblast cell line, and CHO-K1: Chinese hamster ovary cell line) were distributed in a 96-well plate at the density of 1×10^4 cells/well, which were treated with the compound of the present invention for 24 hours. The water-soluble tetrazolium salt WST-8 was added thereto. The orange colored formazan dye degraded by dehydrogenase in the live cells was read, followed by nonlinear regression to determine 50% growth inhibition concentration.

[2] = Cytotoxicity test (WST-8), HFL-1; format: cell-based; conditions: human, HFL-1 embryonic lung cells; HFL-1, 24 hours
Experimental: as §1

iNOS = assay: Inhibition of LPS-induced iNOS induction in Raw264.7 cells (Griess reagent); format: cell-based; conditions: Mus musculus, Raw264.7, LPS 100 ng/ml, 24 hours, read-out: Inhibition rate of iNOS induction (%)
Experimental: To investigate whether or not the derivative of the present invention could inhibit iNOS inducement, Raw264.7 cells (mouse macrophages) were distributed in a 384-well plate at the density of 3×10^4 cells/well. The cells were treated with LPS at the concentration of 100 ng/ml, followed by culture at 37° C. for 24 hours. The concentration of […] increased in the medium was measured by using Griess reagent. The inhibition rate was calculated by mathematical formula based on the detected signals. The results are shown in Table 2. % inhibition=(mean value of sample−mean value of negative control)/(mean value of positive control −mean value of negative control)×100 [Mathematical Formula 1]

[3] = Cytotoxicity test (WST-8), VERO; format: cell-based; conditions: African green monkey, VERO kidney cells
Experimental: as §1

[4] = Cytotoxicity test (WST-8), CHO-K1; format: cell-based; conditions: Chinese hamster, CHO-K1 ovary cells; CHO-K1, 24 hours
Experimental: as §1

[5] = Cytotoxicity test (WST-8), L929; format: cell-based; conditions: mouse, L929 fibroblast cells (NCTC clone 929); L929, 24 hours
Experimental: as §1

NFAT5 = target: T1, NFAT5 (Mus musculus, UniProt Q9WV30); assay: NFAT5 reporter screening (GFP, HCS) in LPS-treated Raw264.7 cells; format: cell-based; conditions: for Inhibition rate of NFAT5 transcription (%): Raw264.7 reporter, LPS 1 μg/ml, 48 hours
T1 construct: endogenous in cells; host or cells: RAW264.7
Experimental: To investigate whether or not the derivative of the present invention could inhibit the transcriptional activity of NFAT5, NFAT5 reporter screening was performed. A plasmid vector was constructed by eliminating CMV promoter sequence from the backbone and inserting NFAT5 binding site sequence ([…]) instead. Raw264.7 cells transfected with the vector were cultured in 10% FBS-PRMI (supplemented with 500 μg/ml G418). The cells were distributed in a 96-well plate at the density of 3×10^3 cells/well, followed by further culture for one more day. The cells were treated with LPS at the concentration of 1 μg/ml for 48 hours. Then, the cells were fixed and the expression level of GFP was measured by HCS fluorescence image (Thermo, ArrayScan^VTI).

[6] = Metabolic stability in human liver microsomes; format: in vitro ADME; conditions: human liver microsome fractions, 30 minutes
Experimental: (§2) Particularly, each compound was added to rat and human liver microsome fractions, followed by culture for 30 minutes. Each compound was administered via intravenous injection (iv) and oral-administration (po) to rat at the concentration of 5 mg/kg, followed by making pharmacokinetic profiles.

[7] = Metabolic stability in rat liver microsomes; format: in vitro ADME; conditions: rat liver microsome fractions, 30 minutes
Experimental: as §2

T1 sequence (Q9WV30 whole entry): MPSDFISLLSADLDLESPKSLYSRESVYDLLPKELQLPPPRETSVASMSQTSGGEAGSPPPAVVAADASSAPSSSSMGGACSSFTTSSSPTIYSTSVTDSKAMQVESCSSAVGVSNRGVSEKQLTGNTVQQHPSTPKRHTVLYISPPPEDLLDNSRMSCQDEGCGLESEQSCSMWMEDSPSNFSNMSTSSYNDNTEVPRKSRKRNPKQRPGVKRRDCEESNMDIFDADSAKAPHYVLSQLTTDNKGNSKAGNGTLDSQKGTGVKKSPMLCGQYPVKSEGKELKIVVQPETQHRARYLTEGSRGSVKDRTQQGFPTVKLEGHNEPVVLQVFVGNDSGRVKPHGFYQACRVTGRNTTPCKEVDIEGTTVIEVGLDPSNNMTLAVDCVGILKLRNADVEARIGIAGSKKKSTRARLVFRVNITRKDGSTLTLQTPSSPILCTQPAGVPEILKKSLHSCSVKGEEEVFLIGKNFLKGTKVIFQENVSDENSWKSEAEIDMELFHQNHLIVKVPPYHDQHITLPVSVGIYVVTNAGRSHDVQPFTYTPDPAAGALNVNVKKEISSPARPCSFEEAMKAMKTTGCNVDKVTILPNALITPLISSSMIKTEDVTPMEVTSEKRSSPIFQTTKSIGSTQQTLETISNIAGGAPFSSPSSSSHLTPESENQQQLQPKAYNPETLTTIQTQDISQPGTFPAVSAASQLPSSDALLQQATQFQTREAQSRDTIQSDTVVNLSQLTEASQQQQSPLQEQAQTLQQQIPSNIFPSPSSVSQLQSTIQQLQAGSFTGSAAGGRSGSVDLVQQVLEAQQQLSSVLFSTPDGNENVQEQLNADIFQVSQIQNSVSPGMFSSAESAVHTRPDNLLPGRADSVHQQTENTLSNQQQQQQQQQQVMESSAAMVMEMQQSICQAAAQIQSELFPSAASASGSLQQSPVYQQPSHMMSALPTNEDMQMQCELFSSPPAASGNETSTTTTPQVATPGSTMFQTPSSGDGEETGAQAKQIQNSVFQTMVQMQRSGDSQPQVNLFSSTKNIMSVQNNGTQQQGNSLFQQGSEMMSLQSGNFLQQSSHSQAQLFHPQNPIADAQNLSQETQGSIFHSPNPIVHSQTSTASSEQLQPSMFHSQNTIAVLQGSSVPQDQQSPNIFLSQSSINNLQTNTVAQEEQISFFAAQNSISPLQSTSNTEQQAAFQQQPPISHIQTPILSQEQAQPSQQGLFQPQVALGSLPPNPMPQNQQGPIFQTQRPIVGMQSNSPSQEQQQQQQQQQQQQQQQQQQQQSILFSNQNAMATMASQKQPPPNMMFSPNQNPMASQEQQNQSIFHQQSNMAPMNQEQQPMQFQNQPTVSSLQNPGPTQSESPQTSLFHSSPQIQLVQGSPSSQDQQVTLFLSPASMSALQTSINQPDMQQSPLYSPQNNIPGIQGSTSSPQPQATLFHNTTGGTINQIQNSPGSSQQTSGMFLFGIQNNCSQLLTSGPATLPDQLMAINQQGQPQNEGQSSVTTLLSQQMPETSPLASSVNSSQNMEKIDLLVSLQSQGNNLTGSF

Inhibition rate of NFAT5 transcription (%) (NFAT5; 1 μM) | Inhibition rate of NFAT5 transcription (%) (NFAT5; 10 μM) | remaining compound, Human (%) [6] [%] | remaining compound, Rat (%) [7] [%] | Compound | inhibition of NFAT promoter / transcriptional activity (in words) (NFATc) | GI50 at 24 h [1] [µM] | GI50 at 24 h [2] [µM] | inhibition at 1 µM (iNOS; 1 μM) [%] | inhibition at 10 µM (iNOS; 10 μM) [%] | GI50 at 24 h [3] [µM] | GI50 at 24 h [4] [µM] | GI50 at 24 h [5] [µM] | inhibiting NFAT5 activity (in words) (NFAT5; Table 3 and FIG. 1)
24.6 | 108.8 | 63.7 ± 2.4 | 18.5 ± 5.2 | COc1ccc2c(Cc3c(F)cccc3F)c3n(c(=O)c2c1OC)CCc1cc2c(cc1-3)OCO2 [Example 3, 13-(2,6-difluorobenzyl)-9,10-dimethoxy-5H-[1,3]dioxolo[4,5-g]isoquinolino[3,2-a]isoquinoline-8(6H)-one] | slightly | 10.2 | 32.8 | 74.1 | 113 | 84.9 | 16.7 | 47.7 | remarkably excellent in inhibiting NFAT5 activity
– | – | 3.88 ± 0.24 | 0.82 ± 0.16 | O=C1CC2(CCCC2)CC(=O)N1CCCCN1CCN(c2ncccn2)CC1 [buspirione, reference compound] | – | – | – | – | – | – | – | – | –
